Reference: patent US7544365B2, “TRPV1+ sensory neurons control of β-cells stress and islet inflammation in diabetes” (priority 2006, dated 2009)
“Also recorded” adds a separate entry of the source.

Key:
TRPV1^+ neurons [1] = experiment: Neonatal capsaicin treatment of diabetes-prone NOD mice: insulitis and diabetes development; type: in vivo
From the text: Using immunofluorescence, it was observed that murine islets are associated with meshworks of TRPV1^+ fibers (FIG. 1a). TRPV1 was undetectable in endocrine islet cells by immunofluorescence (FIG. 1a, b) and by RT-PCR of purified NOD islets (FIG. 9). based on this evidence of islet innervation by TRPV1^+ primary afferent sensory neurons, we investigated their possible role in T1D pathogenesis, using neonatal treatment of diabetes-prone NOD mice with capsaicin to permanently remove these neurons (Caterina and Julius, 2001; Jancso et al., 1977). Two day-old NOD mice received capsaicin (50 mg/kg, s.c.) or vehicle (NOD^caps, NOD^ctrl). […] We confirmed the lack of TRPV1 expression in NOD^caps mice, using immunofluorescence (FIG. 1a, b, TRPV1 green), Western blots (8, 12 & 20 wk), and standard hot-plate testing in randomly selected 5-6 wk old or in diabetic animals (FIG. 1c).
(§1) NOD, NOD.scid, BDC2.5 TCR transgenic NOD mice (‘BDC2.5-NOD’), NOD-β2m^null, C57BL/6 (‘B6’), B6-TRPV1^null, NOR NOD×B6 Idd4 congenic mice (NOD.B6-(D11Nds1-D11Mit325)/DelJ) were obtained from the Jackson Laboratories (Bar Harbor, Me.) and maintained under approved protocols in our vivarium (NOD female diabetes incidence: 85-90%). […] Control mice (NOD^ctrl) received 20 μL vehicle (10% ethanol, 10% Tween, 80% saline). In adoptive transfer experiments, splenocytes from 4-6 diabetic NOD females were pooled and 10^7 cells/mouse were injected (100 μL i.v.) into irradiated (300 rad) 6- to 8 wk-old NOD.scid recipients. Diastix strips were used to screen for glucosuria (Bayer HealthCare), diabetes was confirmed by diabetic blood glucose measurements on 2 consecutive days (>13.8 mM/l; SureStep, Life Technologies Inc., Burnaby, British Columbia, Canada).
Frozen murine pancreas sections were fixed in 4% paraformaldehyde, blocked with 5% normal donkey serum (Jackson), and stained with polyclonal rat or goat antibodies against GFAP (Signet Pathology Systems, Dedham, Mass.), polyclonal rabbit anti-TRPV1 (Oncogene) or guinea-pig antibody against insulin (DAKO, Carpinteria, Calif.). Bound antibodies were detected with biotinylated donkey anti-guinea pig or rat IgG (1:200, Jackson), Streptavidin AlexaFluor 546 or 633 (1:300, Molecular Probes, Eugene, Oreg.), and FITC conjugated donkey anti-rabbit IgG (1:25, Jackson). […] TRPV1 staining was performed on snap-frozen sections of NOD female pancreas with an overnight incubation of primary antibody at 4° C. To score insulitis severity, pancreata were fixed in 10% buffered formalin for a minimum of 24 hr. Histological sections were stained with hematoxylin and eosin and three blinded observers scored at the following scale: 0, normal islet; 1, peri-insulitis or encroachment of <25% of the islet surface area; 2, infiltration of 25-50% of the islet surface area; 3, infiltration of >50% of the islet surface area (Winer et al., 2003). Spleen and lymph node cells were stained with either 2 nM PE-conjugated NRP-V7/H-2K^d or TUM/H-2K^d tetramers, the latter a negative control, in FACS buffer (1% v/v FBS, 0.1% w/v NaN3 in PBS) at 4° C. for 1 hr, followed by staining with FITC-conjugated anti-CD8 mAb (clone 53-6.7; […]) and PerCP-conjugated anti-B 220 Ab (clone RA6-3B2; […], both from BD Pharmingen). Tetramer positivity was analyzed on gated CD8+B220− cells and reported as percentage of cells binding the NRP-V7/H-2K^d tetramer minus the percentage of cells binding the negative control, TUM/H-2K^d tetramer.

TRPV1^+ neurons [2] = experiment: Systemic and pancreatic T cell development and function in NOD^caps versus NOD^ctrl mice; type: in vivo
Experimental: Delayed type hypersensitivity (DTH): […] Abdomens were shaved and 100 μl of the allergen were applied. 6 d later, the baseline thickness of right ears were measured by gauge before application of 10 μl 1% TNCB in oil or carrier only. Ear thickness was re-measured in sensitized and naïve animals 24 hr later. […] Calbiochem, San Diego, Calif.) were purchased, other antigens were previously generated and described (Winer et al., 2003). After 72 hrs, cultures were pulsed (1 μCi, [3H]thymidine/18 hrs) and counted by liquid scintillation. Lymph node assays were similar, but used 2×10^5 lymph node cells plus 2×10^5 irradiated (1,100 rad), syngeneic splenocytes/well. […] Bound antibodies were detected with biotinylated donkey anti-guinea pig or rat IgG (1:200, Jackson), Streptavidin AlexaFluor 546 or 633 (1:300, Molecular Probes, Eugene, Oreg.), and FITC conjugated donkey anti-rabbit IgG (1:25, Jackson). […] Histological sections were stained with hematoxylin and eosin and three blinded observers scored at the following scale: 0, normal islet; 1, peri-insulitis or encroachment of <25% of the islet surface area; 2, infiltration of 25-50% of the islet surface area; 3, infiltration of >50% of the islet surface area (Winer et al., 2003). […] Live events were collected based on forward- and side-scatter profiles on a FACScan flow cytometer (BD) and analyzed using FlowJo software (Stanford University).

TRPV1^+ sensory neurons = experiment: Glucose challenge and insulin tolerance after capsaicin removal of TRPV1^+ sensory neurons; type: in vivo, NOD.scid / NOD mice
From the text: We compared measures of β-cell function in untreated and in capsaicin treated NOD.scid mice, and in C57/BL6J (‘B6’) and B6.TRPV1^−/− mice, the latter with a normal complement of sensory afferent neurons but absent TRPV1 expression (Caterina et al., 2000). NOD.scid mice were used to ascertain absence of lymphoid islet infiltration in NOD experiments, CD1 mice provided controls (FIGS. 17A-17C).
as §1

TRPV1 = experiment: Capsaicin-evoked Ca^2+ responses in dorsal root ganglion neurons; type: cell-based, NOD and NOR mice; conditions: NOD DRG neurons compared with NOR, p<0.05
Experimental: Dorsal root ganglia from male NOD, NOR mice and NOD.B6.Idd4-congenic (5-10 wk) were isolated and cultured in F12 medium (Invitrogen) with 10 ng/mL nerve- and 10 ng/mL glial-derived nerve growth factor. Cultures were used 3-5 d after plating. The Ca^2+-sensitive fluorophore, fura-2 (Molecular Probes, Eugene, Oreg.), was used to assess [Ca^2+]i by ratiometric measurement. Excitation (340 and 380 nm) was generated by a xenon arc lamp and passed through a high-speed, computer-controlled, variable-wavelength monochromator. This light was transmitted to the recording dish via a fiberoptic cable. Emitted light was directed through a 510 nm bandpass filter and detected by an intensified CCD camera. Image data were analyzed off-line. Each 340 nm image was divided, on a pixel-by-pixel basis, by the corresponding 380 nm image, producing a ratio. Averaged values of the ratios within each region of interest were plotted as a function of time.

[3] = tested on: islet T cell infiltration; experiment: Intra-arterial pancreas injection of substance P in prediabetic NOD mice (insulitis); type: in vivo
Experimental: (§2) Animals were anaesthetized with isoflurane and the aorta developed with minimal trauma to ligate above and below the celiac artery. A 32G needle was used to inject Evans Blue (3 mg/kg/100 μl; Sigma), substance P (2 nmol/100 μl; Sigma) or saline into the aorta just prior to the celiac branching. Ligations are released after closure of the injection site. For insulitis studies, pancreata from treated mice were obtained 48-72 hr after pancreas injection treatment and histology performed. In diabetes reversal experiments, newly diagnosed NOD female mice were treated with either saline or substance P and followed without exogenous insulin treatment.
Frozen murine pancreas sections were fixed in 4% paraformaldehyde, blocked with 5% normal donkey serum (Jackson), and stained with polyclonal rat or goat antibodies against GFAP (Signet Pathology Systems, Dedham, Mass.), polyclonal rabbit anti-TRPV1 (Oncogene) or guinea-pig antibody against insulin (DAKO, Carpinteria, Calif.). Bound antibodies were detected with biotinylated donkey anti-guinea pig or rat IgG (1:200, Jackson), Streptavidin AlexaFluor 546 or 633 (1:300, Molecular Probes, Eugene, Oreg.), and FITC conjugated donkey anti-rabbit IgG (1:25, Jackson). […] TRPV1 staining was performed on snap-frozen sections of NOD female pancreas with an overnight incubation of primary antibody at 4° C. […]

[4] = Diabetes reversal after pancreatic i.a. substance P in newly diabetic NOD mice; type: in vivo
Experimental: as §2

[5] = tested on: activated CD4+ NOD T cells; experiment: sP response of activated CD4+ NOD T cells in vitro (proliferation); type: cell-based, NOD mice
Experimental: Splenocytes from 3- to 24 wk-old NOD females were cultured (4×10^5 cells/well) in AIM V serum-free medium (Life Technologies) containing antigen (0.002-50 μg/ml), baculovirus-derived human GAD65 (Diamyd Diagnostics, Stockholm, Sweden), human GFAP (>90% pure) and bovine S100b (>98% pure; Calbiochem, San Diego, Calif.) were purchased, other antigens were previously generated and described (Winer et al., 2003). After 72 hrs, cultures were pulsed (1 μCi, [3H]thymidine/18 hrs) and counted by liquid scintillation. Lymph node assays were similar, but used 2×10^5 lymph node cells plus 2×10^5 irradiated (1,100 rad), syngeneic splenocytes/well. To normalize pooled data, we calculated a stimulation index (SI, cpm antigen stimulated/medium control), background counts were <1500 cpm in spleen cell and <1000 cpm in lymph node cultures. In some proliferation studies, plate-bound anti-CD3 (0.001-3 μg/ml; BD PharMingen) and anti-CD28 (0.2 μg/ml; BD PharMingen) were used to stimulate CD4+ T-cells negatively selected from NOD β2m^null splenocytes in the presence of substance P.

[6] = tested on: BDC2.5 T cell receptor transgenic T cells; experiment: CFSE dye dilution in vivo clonal expansion of BDC2.5 T cells in pancreatic lymph nodes; set-up: species or system NOD mice
Experimental: For dye dilution in vivo clonal expansion studies, splenic CD4+ T-cells from NOD-BDC2.5 females were isolated by negative selection (Stemcell Technologies, Vancouver, Canada) and incubated with 2.5 μM CFSE (10′/37° C., Molecular Probes, Eugene, Oreg.) in PBS. Prediabetic (12 wk) NOD females pretreated 12 hr prior with substance P or saline, were injected i.v. with 3×10^6 CFSE-labeled CD4+ T-cells in sterile PBS.
Lymphocytes from thymus, pancreatic/axillary lymph nodes and spleen were stained with FITC, PE, and APC conjugated antibodies to CD3, CD4, CD8, CD44, CD25, CD69 CD62L and FoxP3 (BD Pharmingen, not all combinations are shown). NK-1R and Vβ4 antibodies were obtained from Novus Biologicals (Littleton, Colo.) and Cedarlane (Hornby, Canada), respectively. Live events were collected based on forward- and side-scatter profiles on a FACScan flow cytometer (BD) and analyzed using FlowJo software (Stanford University).

[7] = systemic (i.v.) injection of the same sP dose
[8] = mice that failed to reverse hyperglycemia, i.a. sP

Molecule: COc1cc(CNC(=O)CCCC/C=C/C(C)C)ccc1O [capsaicin]
- tolerability of neonatal capsaicin treatment (TRPV1^+ neurons [1]; 50 mg/kg s.c. in 2 day-old mice): viable, fertile, without abnormalities in growth or gross tissue structure, including pancreas; also recorded: no signs of adverse effects
- islets free of lymphocytes (TRPV1^+ neurons [1]; NOD^caps mice (capsaicin 50 mg/kg s.c. at 2 days old), by age 20 wk): More than 70%
- islet infiltrations compared with NOD^ctrl (TRPV1^+ neurons [1]; NOD^caps mice, p<0.0001): significantly reduced
- reduction in final diabetes incidence (TRPV1^+ neurons [1]; neonatal capsaicin treatment, 35 wk plus next 12 wk, n=52 mice/group, p<0.0001): about 80%
- onset of diabetes (TRPV1^+ neurons [1]; neonatal capsaicin treatment, p=0.0002): delayed the onset of diabetes
- fraction of NOD^caps mice in which infiltrated islets were entirely absent (TRPV1^+ neurons [1]; serial sectioning): one third
- regulatory T cell compartment in pancreatic lymph nodes (TRPV1^+ neurons [2]; NOD^caps mice, beyond 12-16 wk of age): maintained their regulatory T cell compartment
- CD8+ and activated CD8+ CD69+ effector T lymphocytes in pancreatic lymph node tissue (TRPV1^+ neurons [2]; NOD^caps versus NOD^ctrl): significantly reduced proportions and absolute numbers
- serum glucose levels after i.p. glucose challenge (TRPV1^+ sensory neurons; 10-12 wk old NOD.scid^caps versus NOD.scid^ctrl, p=0.004): significantly reduced
- insulin production after glucose challenge (TRPV1^+ sensory neurons; NOD.scid^caps versus NOD.scid^ctrl): significantly less insulin production
- drug concentration required for maximum Ca^2+ response, NOD versus NOR DRG neurons (TRPV1): 10 fold

Molecule: substance P
- islets free of T cell infiltration ([3]; prediabetic NOD, 12 wk of age, within 2d after i.a. sP injection (2 nmoles/kg)): about 80%
- effect on islet T cell infiltration, systemic injection [3, 7]: did not have similar effects
- body weight [4, 8]: preventing the progressive loss of body weight
- insulin sensitivity in non-responding mice [4, 8]: improved insulin sensitivity
- normalization of blood glucose levels ([4]; newly diabetic NOD mice, 2-3 d after diagnosis, pancreatic i.a. sP, without insulin therapy): over half of the i.a. injected diabetics normalized blood glucose levels
- insulin sensitivity ([4]; raising pancreatic sP levels, diabetic NOD mice): dramatically enhanced insulin sensitivity
- time fasting blood glucose remained at near normal levels ([4]; responding mice): 2-8 wk
- cell proliferation and survival [5]: abrogated cell proliferation and survival in a dose-dependent fashion
- expansion in pancreatic lymph nodes of BDC2.5 cells pretreated in vitro ([6]; cells in vitro pretreated with sP overnight, p=0.0045): reduced the ability of these cells to expand in pancreatic lymph nodes
- cellularity and clonal expansion of BDC2.5 T cells in pancreatic lymph nodes ([6]; pancreatic i.a. sP 12-16 hr before transfer, analyzed 4 days later, dye dilution, p=0.003): reduced cellularity and clonal expansion
- expansion of BDC2.5 T cells in pancreatic lymph nodes, systemic injection [6, 7]: had no effect on expansion
